Our source for the mortality values is patent EP4582413A1, “ARYLTETRAHYDROPYRIDINE COMPOUND AND PEST CONTROL AGENT” (priority 2022, dated 2024).

Some results are limits rather than exact numbers.

Holding throughout (format): in vivo
In experiment [1] the test system is brown rice planthoppers (Nilaparvata lugens). The experiment is described as follows: Insecticidal test for brown rice planthoppers. Particulars: Nilaparvata lugens, 144 h; 500 ppm chemical solution, rice leaf sheaths soaked, third-instar larvae, six days, 25°C; read-out: death rate. A digest of the protocol:
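Rice leaf sheaths dipped ~10 s in 500 ppm compound solution (emulsion diluted in water with spreader), air-dried, then infested with five third-instar larvae per tube at 25 °C. Mortality scored after 6 days, death rate calculated, in duplicate.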

For experiment [2], the system named is green peach aphids (Myzus persicae). The experiment is described as follows: Insecticidal test for green peach aphids. Particulars: Myzus persicae, foliar, 144 h; 500 ppm chemical solution sprinkled (2.5 mg/cm^2), wingless imagoes on leaf disc, six days, 25°C; read-out: death rate. Here is the method: Wet absorbent cotton was laid on each glass dish having an inner diameter of 3 cm, a Chinese olive leaf cut into a circle having a diameter of 3 cm was placed thereon, and four wingless green peach aphids (Myzus persicae) imagoes were released. After a day, a 10% by mass emulsion of the presently invented compound prepared according to the above formulation example for an emulsion was diluted with water containing a spreader to prepare a chemical solution having a concentration of 500 ppm. The chemical solution prepared was sprinkled (2.5 mg/cm^2) with a rotary tower sprinkler, and the dishes were capped and accommodated in a thermostatic room at 25°C. […] The test was carried out in duplicate.

Experiment [3] has as its system western flower thrips (Frankliniella occidentalis). As to the kind of experiment: Insecticidal activity against western flower thrips. Particulars: Frankliniella occidentalis, 48 h; 500 ppm chemical solution sprinkled (2.5 mg/cm^2), larvae on common bean leaf, after 2 days; read-out: death rate. A digest of the protocol: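 Bean leaf squares on wet filter paper inoculated with 20 larvae. Compound emulsion diluted with spreader-containing water to 500 ppm and sprayed at 2.5 mg/cm^2 by rotary tower. Run in duplicate.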

In experiment [4] the test system is diamondback moths (Plutella xylostella). As to the kind of experiment: Insecticidal test for diamondback moths. Particulars: Plutella xylostella, 144 h; 500 ppm chemical solution, leaves soaked, third-instar larvae, six days, 25°C; read-out: death rate. A digest of the protocol: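 Leaves dipped about 10 s in a 500 ppm aqueous dilution of an emulsion formulation with spreader, then air-dried. Five third-instar larvae released per dish and held at 25 °C. Tested in duplicate.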

For experiment [5], the system named is cat fleas (Ctenocephalides felis). The experiment is described as follows: whole plant or invertebrate. Particulars: 72 h, read-out: death rate. In a few lines:
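Glass containers (25 cm² inner surface) were coated with 250 µl of a 1000 ppm acetone solution, and the acetone was evaporated to leave a dry film. Five mixed-sex adult fleas were confined per container at 25°C. Mortality was scored after 3 days.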

On to `O=C(Nc1cnccn1)C1=C(O)CC(c2nc(-c3ccc(F)nc3)no2)NC1=O` (stereo not drawn) [3-257], for which the mortality at 500 µg/mL in experiment [1], in experiment [2], in experiment [3] and in experiment [4] was ≥ 90% throughout. Besides, the mortality at 10 µg/cm2 in experiment [5] is ≥ 50%.
For `O=C(Nc1cncc(F)c1)C1=C(O)CC(c2cnc(Cl)c(-c3cnccc3F)c2)NC1=O` (stereo not drawn) [2-137], the mortality at 500 µg/mL in experiment [1], in experiment [2], in experiment [3] and in experiment [4] was ≥ 90% each time. Further, in experiment [5], the mortality at 10 µg/cm2 is ≥ 50%.
As to `O=C(Nc1ccc(F)cn1)C1=C(O)CC(c2nc(-c3snc(Cl)c3Cl)no2)NC1=O` (stereo not drawn) [3-254], the mortality at 500 µg/mL in experiment [1], in experiment [2], in experiment [3] and in experiment [4] was ≥ 90% in each case. Also, in experiment [5], the mortality at 10 µg/cm2 was ≥ 50%.
For `O=C(Nc1ccc(F)cc1)C1=C(O)CC(c2nc(-c3ccc(F)c(F)c3)no2)NC1=O` (stereo not drawn) [3-027], the mortality at 500 µg/mL in experiment [1], in experiment [2], in experiment [3] and in experiment [4] was ≥ 90% in each case. The mortality at 10 µg/cm2 in experiment [5] was ≥ 50%.
For `O=C(Nc1cnc(Cl)cn1)C1=C(O)CC(c2nc(-c3ccnc(Cl)c3)no2)NC1=O` (stereo not drawn) [3-268], the mortality at 500 µg/mL in experiment [1], in experiment [2], in experiment [3] and in experiment [4] was ≥ 90% throughout. The mortality at 10 µg/cm2 in experiment [5] was ≥ 50%.
On to `O=C(Nc1cc(F)ccn1)C1=C(O)CC(c2nc(-c3ccccc3)no2)NC1=O` (stereo not drawn) [3-055], for which the mortality at 500 µg/mL in experiment [1], in experiment [2], in experiment [3] and in experiment [4] was ≥ 90% throughout. In addition, the mortality at 10 µg/cm2 in experiment [5] is ≥ 50%.
With `O=C(Nc1ccc(F)cc1)C1=C(O)CC(c2nc(-c3cccc(Br)c3)no2)NC1=O` (stereo not drawn) [3-028], the mortality at 500 µg/mL in experiment [1], in experiment [2], in experiment [3] and in experiment [4] was ≥ 90% throughout. The mortality at 10 µg/cm2 in experiment [5] was ≥ 50%.
With `O=C(Nc1cnccc1F)C1=C(O)CC(c2cnc(Cl)c(-c3cncc(Cl)c3)c2)NC1=O` (stereo not drawn) [2-146], the mortality at 500 µg/mL in experiment [1], in experiment [2], in experiment [3] and in experiment [4] was ≥ 90% throughout. In experiment [5], the mortality at 10 µg/cm2 was ≥ 50%.
As for `Cc1cccc(-c2cc(C3CC(O)=C(C(=O)Nc4ncccn4)C(=O)N3)cnc2Cl)c1` (stereo not drawn) [2-271], the mortality at 500 µg/mL in experiment [1], in experiment [2], in experiment [3] and in experiment [4] was ≥ 90% throughout. Moreover, the mortality at 10 µg/cm2 in experiment [5] is ≥ 50%.
For `O=C(Nc1ccc(Cl)nc1)C1=C(O)CC(c2cnc(Cl)c(-c3ccc(F)nc3)c2)NC1=O` (stereo not drawn) [2-010], the mortality at 500 µg/mL in experiment [1], in experiment [2], in experiment [3] and in experiment [4] was ≥ 90% in each case. Moreover, the mortality at 10 µg/cm2 in experiment [5] was ≥ 50%.
Consider `O=C(Nc1ccc(F)cc1)C1=C(O)CC(c2ccc(C(F)(F)F)c(-c3ccc(F)nc3)c2)NC1=O` (stereo not drawn) [1-001, N-(4-fluorophenyl)-6-[3-(6-fluoropyridin-3-yl)-4-(trifluoromethyl)phenyl]-4-hydroxy-2-oxo-1,2,5,6-tetrahydropyridine-3-carboxamide], for which the mortality at 500 µg/mL in experiment [1], in experiment [2], in experiment [3] and in experiment [4] was ≥ 90% throughout. The mortality at 10 µg/cm2 in experiment [5] was ≥ 50%.
On to `O=C(Nc1cnccc1Cl)C1=C(O)CC(c2nc(-c3ccncc3Cl)no2)NC1=O` (stereo not drawn) [3-228], for which the mortality at 500 µg/mL in experiment [1], in experiment [2], in experiment [3] and in experiment [4] was ≥ 90% throughout. Moreover, the mortality at 10 µg/cm2 in experiment [5] is ≥ 50%.
